Data published in US10562888B2, “Crystalline FGFR4 inhibitor compound and uses thereof” (Eisai R&D Management Co., Ltd., priority 2015, dated 2020).
Values after ≈ are worked out from the molar mass of the structure shown.

Assay: Solubility in 0.1 N HCl
Assay type: physicochemical
Conditions: simulated gastric fluid

In the case of `C=CC(=O)Nc1cc(N2CCN(CC)CC2)ccc1Nc1cc(N(C)C(=O)Nc2c(Cl)c(OC)cc(OC)c2Cl)ncn1` [Compound 108, N-(2-((6-(3-(2,6-dichloro-3,5-dimethoxyphenyl)-1-methylureido)pyrimidin-4-yl)amino)-5-(4-ethylpiperazin-1-yl)phenyl)acrylamide], the solubility is reported as 5200 µg/mL (≈ 8.26 mM).
